What all share (format): cell-based
In one experiment the target is T1, GLP-1R (INS1e assay) (Rattus norvegicus, UniProt P32301).
T1 construct: endogenous in cells; host or cells: INS-1E cells
T1 sequence (P32301 22-463): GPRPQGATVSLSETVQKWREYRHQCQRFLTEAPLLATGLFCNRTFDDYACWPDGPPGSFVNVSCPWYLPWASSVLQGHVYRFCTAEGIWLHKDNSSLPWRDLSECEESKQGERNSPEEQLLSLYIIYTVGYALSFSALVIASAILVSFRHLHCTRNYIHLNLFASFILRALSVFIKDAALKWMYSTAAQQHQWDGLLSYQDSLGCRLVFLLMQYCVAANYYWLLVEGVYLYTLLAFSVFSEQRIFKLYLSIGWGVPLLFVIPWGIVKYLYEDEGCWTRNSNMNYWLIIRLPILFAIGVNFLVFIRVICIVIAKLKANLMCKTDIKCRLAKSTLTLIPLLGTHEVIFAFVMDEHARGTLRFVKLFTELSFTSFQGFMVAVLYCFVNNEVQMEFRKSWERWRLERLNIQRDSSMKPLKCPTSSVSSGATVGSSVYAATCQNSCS
The experiment in a line: INS1e assay, cAMP activity at GLP-1R. To be noted: mono-lipidated peptides. In outline:
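cAMP was quantified by two-step HTRF, using anti-cAMP cryptate donor and cAMP-d2 acceptor, each diluted 1/20 in conjugate and lysis buffer. EC50 values of the synthetic peptides were derived from the cAMP readout.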

The target of experiment [1] is T2, human glucagon receptor (GCGR) (Homo sapiens, UniProt P47871).
T2 construct: expressed in transfected cells
T2 sequence (P47871 26-477): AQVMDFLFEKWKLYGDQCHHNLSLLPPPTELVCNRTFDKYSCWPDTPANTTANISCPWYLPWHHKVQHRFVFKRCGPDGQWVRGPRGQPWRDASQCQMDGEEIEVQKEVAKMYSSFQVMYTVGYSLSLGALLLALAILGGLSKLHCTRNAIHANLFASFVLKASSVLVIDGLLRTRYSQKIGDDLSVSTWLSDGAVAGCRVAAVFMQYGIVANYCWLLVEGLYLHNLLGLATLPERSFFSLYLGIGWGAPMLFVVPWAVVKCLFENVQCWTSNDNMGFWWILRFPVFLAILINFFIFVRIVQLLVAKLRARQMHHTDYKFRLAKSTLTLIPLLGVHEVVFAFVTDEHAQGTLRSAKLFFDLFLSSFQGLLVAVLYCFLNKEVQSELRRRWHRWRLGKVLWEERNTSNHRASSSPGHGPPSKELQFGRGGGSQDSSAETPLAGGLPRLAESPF
The experiment in a line: cAMP assay, human GCGR cells. Particulars: cAMP assay. In a few lines:
(§1)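 Peptide-stimulated cAMP measured by two-step HTRF after a 30 min room-temperature incubation with receptor-expressing cells (hGLP-1R, hGIPR at 1×10^5 cells/ml; hGCGR at 2×10^5 cells/ml). Duplicate dilutions; EC50 from 4-parameter logistic fit of % Delta F.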

The target of experiment [2] is T3, human GLP-1 receptor (GLP-1R) (Homo sapiens, UniProt P43220).
T3 construct: expressed in transfected cells
T3 sequence (P43220 24-463): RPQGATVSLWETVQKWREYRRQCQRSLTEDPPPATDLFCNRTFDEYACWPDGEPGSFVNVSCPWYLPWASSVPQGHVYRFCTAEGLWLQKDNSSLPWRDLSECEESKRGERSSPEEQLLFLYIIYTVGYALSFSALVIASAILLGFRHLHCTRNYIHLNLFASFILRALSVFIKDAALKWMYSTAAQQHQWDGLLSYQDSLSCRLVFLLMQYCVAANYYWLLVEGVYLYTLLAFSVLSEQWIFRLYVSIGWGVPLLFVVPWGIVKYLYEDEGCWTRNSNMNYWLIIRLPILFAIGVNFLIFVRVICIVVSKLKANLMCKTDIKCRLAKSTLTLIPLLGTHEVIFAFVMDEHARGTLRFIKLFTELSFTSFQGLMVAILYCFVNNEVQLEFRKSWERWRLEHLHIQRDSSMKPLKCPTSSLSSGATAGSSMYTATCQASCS
The experiment in a line: cAMP assay, human GLP-1R cells. In a few lines:
as §1

Experiment [3] has as its target T4, human glucose-dependent insulinotropic peptide receptor (GIPR) (Homo sapiens, UniProt P48546).
T4 construct: expressed in transfected cells
T4 sequence (P48546 22-466): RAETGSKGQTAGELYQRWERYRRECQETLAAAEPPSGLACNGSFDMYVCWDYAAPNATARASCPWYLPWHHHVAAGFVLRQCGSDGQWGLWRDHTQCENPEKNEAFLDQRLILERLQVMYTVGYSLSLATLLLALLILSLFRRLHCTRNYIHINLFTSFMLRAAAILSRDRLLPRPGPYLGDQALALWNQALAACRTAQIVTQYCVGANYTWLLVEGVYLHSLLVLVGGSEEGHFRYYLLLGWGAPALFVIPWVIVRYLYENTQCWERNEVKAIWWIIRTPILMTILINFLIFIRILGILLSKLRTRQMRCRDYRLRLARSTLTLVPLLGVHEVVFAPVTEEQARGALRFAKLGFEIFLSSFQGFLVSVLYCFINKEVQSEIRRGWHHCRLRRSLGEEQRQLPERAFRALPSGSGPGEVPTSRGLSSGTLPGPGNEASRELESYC
The experiment in a line: cAMP assay, human GIPR cells. To be noted: cAMP assay. In outline: as §1

[4] abbreviates: mean of n1 and n2, read-out: INS1e assay EC50 Mean pM GLP-1R.
[5] abbreviates: replicate n1, read-out: INS1e assay EC50 GLP-1R n1.
The mark [6] stands for this setting: replicate n2, read-out: INS1e assay EC50 GLP-1R n2.
Setting [7] is: first determination (n1), read-out: Primary assay EC50 Gluc-R (n1).
[8] abbreviates: second determination (n2), read-out: Primary assay EC50 Gluc-R (n2).
The mark [9] stands for this setting: cAMP assay, first determination (n1), read-out: Primary assay EC50 GLP-1R n1.
Where [10] appears, read: cAMP assay, second determination (n2), read-out: Primary assay EC50 GLP-1R n2.
[11] abbreviates: mean of n1 and n2, read-out: Mean pM GLP-1R.
[12] abbreviates: first determination (n1), read-out: Primary assay EC50 GIP-R (n1).
The mark [13] stands for this setting: second determination (n2), read-out: Primary assay EC50 GIP-R (n2).

The structures appear in SMILES notation. Where two headings read alike, the source gives them in different places. Numbered stars: 1 amine (or outer) side, 2 acyl side, 3 side chain; on linkers, the order of the positions; unused ones are H or OH. Square brackets hold non-standard residues; d marks the D form. Side chains are listed from the residue outwards. Peptide text beside a SMILES is read from it. * marks the point of attachment. C18 diacid = O=C(O)CCCCCCCCCCCCCCCCC(=O)*; γGlu = O=C(O)[C@H](CCC(=O)[*:2])N[*:1]; αMeF = C[C@](N)(Cc1ccccc1)C(=O)O; αMeS = C[C@](N)(CO)C(=O)O; AEEA = NCCOCCOCC(=O)O; Aib = CC(C)(N)C(=O)O

For the compound `CCCCCCCCCCCC(=O)N[C@@H](CCC(=O)N[C@@H](CCC(=O)N[C@@H](CCC(=O)NCCCC[C@H](NC(=O)[C@@H](NC(=O)[C@@H](NC(=O)[C@](C)(Cc1ccccc1)NC(=O)[C@H](C)NC(=O)[C@@H](NC(=O)[C@](C)(Cc1ccccc1)NC(=O)[C@H](CCC(=O)O)NC(=O)[C@](C)(CCCCN)NC(=O)[C@H](C)NC(=O)[C@H](C)NC(=O)[C@H](CCC(=O)O)NC(=O)CNC(=O)[C@H](CCC(=O)O)NC(=O)[C@H](CC(C)C)NC(=O)[C@](C)(Cc1ccccc1)NC(=O)[C@H](CO)NC(=O)[C@](C)(CO)NC(=O)[C@@H](NC(=O)[C@H](CC(=O)O)NC(=O)[C@H](CO)NC(=O)[C@@H](NC(=O)[C@](C)(Cc1ccccc1)NC(=O)[C@H](CO)NC(=O)CNC(=O)[C@H](CCC(=O)O)NC(=O)C(C)(C)NC(=O)[C@@H](N)Cc1c[nH]cn1)[C@@H](C)O)C(C)C)[C@@H](C)CC)C(C)C)C(C)C)C(=O)NCC(=O)NCC(N)=O)C(=O)O)C(=O)O)C(=O)O` [compound 166], the EC50 was 460 pM at GLP-1R (INS1e assay) (setting [4]); 233 pM on GLP-1R (INS1e assay) (setting [5]); 687 pM on GLP-1R (INS1e assay) (setting [6]); at least 26 nM in experiment [1] (setting [7]); at least 26 nM in experiment [1] (setting [8]); 7.2 pM in experiment [2] (setting [9]). In addition, the EC50 in experiment [2] (setting [10]) was 2.7 pM; in experiment [2] (setting [11]) it was 4.9 pM; in experiment [3] (setting [12]) it was at least 26 nM; in experiment [3] (setting [13]), at least 26 nM.

As to `CCCCCCCCCCCC(=O)NCCCCCC(=O)NCCCCCC(=O)NCCCCCC(=O)NCCCC[C@H](NC(=O)[C@@H](NC(=O)[C@@H](NC(=O)[C@](C)(Cc1ccccc1)NC(=O)[C@H](C)NC(=O)[C@@H](NC(=O)[C@](C)(Cc1ccccc1)NC(=O)[C@H](CCC(=O)O)NC(=O)[C@](C)(CCCCN)NC(=O)[C@H](C)NC(=O)[C@H](C)NC(=O)[C@H](CCC(=O)O)NC(=O)CNC(=O)[C@H](CCC(=O)O)NC(=O)[C@H](CC(C)C)NC(=O)[C@](C)(Cc1ccccc1)NC(=O)[C@H](CO)NC(=O)[C@](C)(CO)NC(=O)[C@@H](NC(=O)[C@H](CC(=O)O)NC(=O)[C@H](CO)NC(=O)[C@@H](NC(=O)[C@](C)(Cc1ccccc1)NC(=O)[C@H](CO)NC(=O)CNC(=O)[C@H](CCC(=O)O)NC(=O)C(C)(C)NC(=O)[C@@H](N)Cc1c[nH]cn1)[C@@H](C)O)C(C)C)[C@@H](C)CC)C(C)C)C(C)C)C(=O)NCC(=O)NCC(N)=O` [compound 169], the EC50 is 181 pM on GLP-1R (INS1e assay) (setting [4]); 93.1 pM on GLP-1R (INS1e assay) (setting [5]); 269 pM on GLP-1R (INS1e assay) (setting [6]); at least 27 nM in experiment [1] (setting [7]); at least 27 nM in experiment [1] (setting [8]); 3.4 pM in experiment [2] (setting [9]). Also, the EC50 was 1.7 pM in experiment [2] (setting [10]), 2.6 pM in experiment [2] (setting [11]), at least 27 nM in experiment [3] (setting [12]) and at least 27 nM in experiment [3] (setting [13]).

Take `CCCCCCCCCCCC(=O)NCCCCCC(=O)NCCCCCC(=O)NCCCC[C@H](NC(=O)[C@@H](NC(=O)[C@@H](NC(=O)[C@](C)(Cc1ccccc1)NC(=O)[C@H](C)NC(=O)[C@@H](NC(=O)[C@](C)(Cc1ccccc1)NC(=O)[C@H](CCC(=O)O)NC(=O)[C@](C)(CCCCN)NC(=O)[C@H](C)NC(=O)[C@H](C)NC(=O)[C@H](CCC(=O)O)NC(=O)CNC(=O)[C@H](CCC(=O)O)NC(=O)[C@H](CC(C)C)NC(=O)[C@](C)(Cc1ccccc1)NC(=O)[C@H](CO)NC(=O)[C@](C)(CO)NC(=O)[C@@H](NC(=O)[C@H](CC(=O)O)NC(=O)[C@H](CO)NC(=O)[C@@H](NC(=O)[C@](C)(Cc1ccccc1)NC(=O)[C@H](CO)NC(=O)CNC(=O)[C@H](CCC(=O)O)NC(=O)C(C)(C)NC(=O)[C@@H](N)Cc1c[nH]cn1)[C@@H](C)O)C(C)C)[C@@H](C)CC)C(C)C)C(C)C)C(=O)NCC(=O)NCC(N)=O` [compound 168]: the EC50 at GLP-1R (INS1e assay) (setting [4]) was 326 pM; on GLP-1R (INS1e assay) (setting [5]), 189 pM; on GLP-1R (INS1e assay) (setting [6]), 462 pM; in experiment [1] (setting [7]), at least 28 nM; in experiment [1] (setting [8]), at least 28 nM; in experiment [2] (setting [9]), 5.1 pM. Moreover, the EC50 in experiment [2] (setting [10]) is 2.6 pM; in experiment [2] (setting [11]), 3.8 pM; in experiment [3] (setting [12]), at least 28 nM; in experiment [3] (setting [13]), at least 28 nM.

With `CC[C@H](C)[C@H](NC(=O)[C@H](Cc1ccccc1)NC(=O)[C@H](CCC(=O)O)NC(=O)C(C)(C)NC(=O)[C@H](C)NC(=O)[C@H](C)NC(=O)[C@H](CCC(=O)O)NC(=O)CNC(=O)[C@H](CCC(=O)O)NC(=O)[C@H](CC(C)C)NC(=O)[C@](C)(Cc1ccccc1)NC(=O)[C@H](CO)NC(=O)[C@](C)(CO)NC(=O)[C@@H](NC(=O)[C@H](CC(=O)O)NC(=O)[C@H](CO)NC(=O)[C@@H](NC(=O)[C@](C)(Cc1ccccc1)NC(=O)[C@H](CO)NC(=O)CNC(=O)[C@H](CCC(=O)O)NC(=O)C(C)(C)NC(=O)[C@@H](N)Cc1c[nH]cn1)[C@@H](C)O)C(C)C)C(=O)N[C@@H](CCCCNC(=O)COCCOCCNC(=O)COCCOCCNC(=O)CC[C@H](NC(=O)CCCCCCCCCCCCCCCCC(=O)O)C(=O)O)C(=O)N[C@@H](Cc1c[nH]c2ccccc12)C(=O)N[C@H](C(=O)N[C@H](C(=O)N[C@@H](CCC(=O)O)C(=O)NCC(=O)NCC(N)=O)C(C)C)C(C)C` [compound 67] (H-H[Aib]EGS[αMeF]TSDV[αMeS]S[αMeF]LEGEAA[Aib]EFIK([AEEA-AEEA-γGlu-C18 diacid])WVVEGG-NH2; N-terminus assumed), the EC50 was 12100 pM at GLP-1R (INS1e assay) (setting [4]); 6150 pM at GLP-1R (INS1e assay) (setting [5]); 18100 pM on GLP-1R (INS1e assay) (setting [6]); at least 25.4 nM in experiment [1] (setting [7]); at least 25.4 nM in experiment [1] (setting [8]); 72.1 pM in experiment [2] (setting [9]). For the same compound, the EC50 was 48 pM in experiment [2] (setting [10]), 60.1 pM in experiment [2] (setting [11]), at least 25.4 nM in experiment [3] (setting [12]) and at least 25.4 nM in experiment [3] (setting [13]).

As for `CCCCCCCCCCCCCCCCCC(=O)N[C@@H](CCC(=O)N[C@@H](CCC(=O)N[C@@H](CCC(=O)NCCCC[C@H](NC(=O)[C@@H](NC(=O)[C@@H](NC(=O)[C@](C)(Cc1ccccc1)NC(=O)[C@H](C)NC(=O)[C@@H](NC(=O)[C@](C)(Cc1ccccc1)NC(=O)[C@H](CCC(=O)O)NC(=O)[C@](C)(CCCCN)NC(=O)[C@H](C)NC(=O)[C@H](C)NC(=O)[C@H](CCC(=O)O)NC(=O)CNC(=O)[C@H](CCC(=O)O)NC(=O)[C@H](CC(C)C)NC(=O)[C@](C)(Cc1ccccc1)NC(=O)[C@H](CO)NC(=O)[C@](C)(CO)NC(=O)[C@@H](NC(=O)[C@H](CC(=O)O)NC(=O)[C@H](CO)NC(=O)[C@@H](NC(=O)[C@](C)(Cc1ccccc1)NC(=O)[C@H](CO)NC(=O)CNC(=O)[C@H](CCC(=O)O)NC(=O)C(C)(C)NC(=O)[C@@H](N)Cc1c[nH]cn1)[C@@H](C)O)C(C)C)[C@@H](C)CC)C(C)C)C(C)C)C(=O)NCC(=O)NCC(N)=O)C(=O)O)C(=O)O)C(=O)O` [compound 184], the EC50 was 426 pM on GLP-1R (INS1e assay) (setting [4]); 351 pM at GLP-1R (INS1e assay) (setting [5]); 501 pM at GLP-1R (INS1e assay) (setting [6]); at least 26 nM in experiment [1] (setting [7]); at least 26 nM in experiment [1] (setting [8]); 47 pM in experiment [2] (setting [9]). The EC50 is 12 pM in experiment [2] (setting [10]), 29.5 pM in experiment [2] (setting [11]), at least 26 nM in experiment [3] (setting [12]) and at least 26 nM in experiment [3] (setting [13]).

The record behind these values is patent publication US10414811B2, “Protease-resistant lipidated GLP-1 analogs” (MEDIMMUNE LIMITED, priority 2015, dated 2019).
